Reference: PubChem BioAssay AID1745844 (Carcinogenic Potency Database (CPDB), 2022)
Values joined by “and” are separate entries in the source; they are usually repeats but may differ in a detail not shown here. Equal values may be shown once. Active and inactive are the calls of the source. The rule behind the calls is not given here.

Tested on: rodent lifetime carcinogenesis bioassay, tumor incidence TD50
Test: carcinogenic potency in animals, long-term in vivo studies, CPDB compilation (AID 1745844)
Conditions: in feed

Work on `ClC1=C(Cl)C2(Cl)C3C(Cl)C(Cl)CC3C1(Cl)C2(Cl)Cl` (stereo not given) yielded a TD50 (mouse, strain B6C3F1, females, site: any site (literature study), lesion: several types, types named in the paper, dosed 80 weeks, study length 90 weeks) of 5.16 mg/kg/day, a TD50 (mouse, strain B6C3F1, females, site: liver, lesion: hepatocellular adenoma + hepatocellular carcinoma + neoplastic nodule, dosed 80 weeks, study length 90 weeks) of 4.89 mg/kg/day and a TD50 (mouse, strain B6C3F1, females, site: liver, lesion: hepatocellular carcinoma, dosed 80 weeks, study length 89 weeks) of 5.28 mg/kg/day. The TD50 (mouse, strain B6C3F1, females, site: liver, lesion: hepatocellular carcinoma, dosed 80 weeks, study length 90 weeks) was 4.89 mg/kg/day, the TD50 (mouse, strain B6C3F1, females, site: lung, lesion: alveolar/bronchiolar adenoma + alveolar/bronchiolar carcinoma, dosed 80 weeks, study length 90 weeks) was 228 mg/kg/day and the TD50 (mouse, strain B6C3F1, males, site: any site (literature study), lesion: several types, types named in the paper, dosed 80 weeks, study length 90 weeks) was 2.31 mg/kg/day. For the same molecule, the TD50 (mouse, strain B6C3F1, males, site: liver, lesion: hepatocellular adenoma + hepatocellular carcinoma + neoplastic nodule, dosed 80 weeks, study length 90 weeks) was 2.15 mg/kg/day, the TD50 (mouse, strain B6C3F1, males, site: liver, lesion: hepatocellular adenoma, dosed 60 weeks, study length 61 weeks) was 0.903 mg/kg/day and the carcinogen call (mouse, strain B6C3F1, males, site: liver, lesion: hepatocellular adenoma, dosed 60 weeks, study length 68 weeks) was “positive”. For the same molecule, the TD50 (mouse, strain B6C3F1, males, site: liver, lesion: hepatocellular adenoma, dosed 60 weeks, study length 72 weeks) was 0.727 mg/kg/day, the carcinogen call (mouse, strain B6C3F1, males, site: liver, lesion: hepatocellular adenoma, dosed 68 weeks, study length 68 weeks) was “positive” and the TD50 (mouse, strain B6C3F1, males, site: liver, lesion: hepatocellular adenoma, dosed 72 weeks, study length 72 weeks) was 1.96 mg/kg/day. For the same molecule, the TD50 (mouse, strain B6C3F1, males, site: liver, lesion: hepatocellular carcinoma, dosed 60 weeks, study length 61 weeks) was 1.91 mg/kg/day, the TD50 (mouse, strain B6C3F1, males, site: liver, lesion: hepatocellular carcinoma, dosed 60 weeks, study length 68 weeks) was 1.49 mg/kg/day and the TD50 (mouse, strain B6C3F1, males, site: liver, lesion: hepatocellular carcinoma, dosed 60 weeks, study length 72 weeks) was 2.67 mg/kg/day. The TD50 (mouse, strain B6C3F1, males, site: liver, lesion: hepatocellular carcinoma, dosed 68 weeks, study length 68 weeks) was 0.878 mg/kg/day, the TD50 (mouse, strain B6C3F1, males, site: liver, lesion: hepatocellular carcinoma, dosed 72 weeks, study length 72 weeks) was 2.96 mg/kg/day and the TD50 (mouse, strain B6C3F1, males, site: liver, lesion: hepatocellular carcinoma, dosed 80 weeks, study length 89 weeks) was 2.48 mg/kg/day. The TD50 (mouse, strain B6C3F1, males, site: liver, lesion: hepatocellular carcinoma, dosed 80 weeks, study length 90 weeks) was 2.15 mg/kg/day, the TD50 (mouse, strain B6C3F1, males, site: liver, lesion: several types, types named in the paper, dosed 60 weeks, study length 61 weeks) was 0.583 mg/kg/day and the carcinogen call (mouse, strain B6C3F1, males, site: liver, lesion: several types, types named in the paper, dosed 60 weeks, study length 68 weeks) was “positive”. For the same molecule, the carcinogen call (mouse, strain B6C3F1, males, site: liver, lesion: several types, types named in the paper, dosed 68 weeks, study length 68 weeks) was “positive”, the TD50 (mouse, strain B6C3F1, males, site: liver, lesion: several types, types named in the paper, dosed 72 weeks, study length 72 weeks) was 1.68 mg/kg/day and the TD50 (mouse, strain B6C3F1, males, site: lung, lesion: alveolar/bronchiolar adenoma + alveolar/bronchiolar carcinoma, dosed 80 weeks, study length 90 weeks) was 656 mg/kg/day. The TD50 (mouse, strain C57BL/10J, males, site: liver, lesion: several types, types named in the paper, dosed 104 weeks, study length 104 weeks) was 13.1 mg/kg/day, the TD50 (mouse, strain Charles River CD1, females, site: liver, lesion: hepatoma, dosed 78 weeks, study length 78 weeks) was 71.8 mg/kg/day and the TD50 (mouse, strain Charles River CD1, females, site: liver, lesion: nodular hyperplasia, dosed 78 weeks, study length 78 weeks) was 1.78 mg/kg/day. For the same molecule, the TD50 (mouse, strain Charles River CD1, males, site: liver, lesion: nodular hyperplasia, dosed 78 weeks, study length 78 weeks) was 1.45 mg/kg/day, the TD50 (mouse, strain D2B6F1 mice, males, site: liver, lesion: hepatocellular adenoma, dosed 60 weeks, study length 61 weeks) was 2.33 mg/kg/day and the TD50 (mouse, strain D2B6F1 mice, males, site: liver, lesion: hepatocellular adenoma, dosed 69 weeks, study length 69 weeks) was 1.29 mg/kg/day. For the same molecule, the TD50 (mouse, strain D2B6F1 mice, males, site: liver, lesion: hepatocellular adenoma, dosed 87 weeks, study length 87 weeks) was 4.98 mg/kg/day, the TD50 (mouse, strain D2B6F1 mice, males, site: liver, lesion: hepatocellular carcinoma, dosed 60 weeks, study length 61 weeks) was 6.09 mg/kg/day and the TD50 (mouse, strain D2B6F1 mice, males, site: liver, lesion: hepatocellular carcinoma, dosed 69 weeks, study length 69 weeks) was 3.31 mg/kg/day. It also gave a TD50 (mouse, strain D2B6F1 mice, males, site: liver, lesion: hepatocellular carcinoma, dosed 87 weeks, study length 87 weeks) of 5.21 mg/kg/day, a TD50 (mouse, strain D2B6F1 mice, males, site: liver, lesion: several types, types named in the paper, dosed 60 weeks, study length 61 weeks) of 1.93 mg/kg/day and a TD50 (mouse, strain D2B6F1 mice, males, site: liver, lesion: several types, types named in the paper, dosed 69 weeks, study length 69 weeks) of 1.03 mg/kg/day. For the same molecule, the TD50 (mouse, strain D2B6F1 mice, males, site: liver, lesion: several types, types named in the paper, dosed 87 weeks, study length 87 weeks) was 3.83 mg/kg/day, the TD50 (mouse, strain ICR, females, site: liver, lesion: hepatocellular adenoma, dosed 106 weeks, study length 106 weeks) was 19.3 mg/kg/day and the TD50 (mouse, strain ICR, females, site: liver, lesion: hepatocellular carcinoma, dosed 106 weeks, study length 106 weeks) was 60 mg/kg/day. For the same molecule, the TD50 (mouse, strain ICR, females, site: liver, lesion: several types, types named in the paper, dosed 106 weeks, study length 106 weeks) was 13.4 mg/kg/day, the TD50 (mouse, strain ICR, males, site: all sites, lesion: hemangioma, dosed 106 weeks, study length 106 weeks) was 4.01 mg/kg/day and the TD50 (mouse, strain ICR, males, site: liver, lesion: hepatocellular adenoma, dosed 106 weeks, study length 106 weeks) was 2.98 mg/kg/day. It also gave a TD50 (mouse, strain ICR, males, site: liver, lesion: hepatocellular carcinoma, dosed 106 weeks, study length 106 weeks) of 7.38 mg/kg/day, a TD50 (mouse, strain ICR, males, site: liver, lesion: several types, types named in the paper, dosed 106 weeks, study length 106 weeks) of 1.71 mg/kg/day and a TD50 (rat, strain Fischer 344, females, site: mammary gland, lesion: fibroadenoma, dosed 130 weeks, study length 130 weeks) of 0.32 mg/kg/day. For the same molecule, the TD50 (rat, strain Fischer 344, males, site: liver, lesion: hepatocellular adenoma, dosed 130 weeks, study length 130 weeks) was 15.3 mg/kg/day, the TD50 (rat, strain Osborne-Mendel, females, site: any site (literature study), lesion: several types, types named in the paper, dosed 80 weeks, study length 109 weeks) was 18.4 mg/kg/day (inactive) and the TD50 (rat, strain Osborne-Mendel, females, site: liver, lesion: hepatocellular adenoma + hepatocellular carcinoma + neoplastic nodule, dosed 80 weeks, study length 109 weeks) was 121 mg/kg/day. For the same molecule, the TD50 (rat, strain Osborne-Mendel, females, site: uterus, lesion: adenocarcinoma + sarcoma, dosed 80 weeks, study length 109 weeks) was 101 mg/kg/day (inactive), the TD50 (rat, strain Osborne-Mendel, males, site: all sites, lesion: fibrous histiocytoma, dosed 80 weeks, study length 109 weeks) was 42.5 mg/kg/day and 60.4 mg/kg/day (inactive) and the TD50 (rat, strain Osborne-Mendel, males, site: any site (literature study), lesion: several types, types named in the paper, dosed 80 weeks, study length 109 weeks) was 21.6 mg/kg/day. The TD50 (rat, strain Osborne-Mendel, males, site: thyroid gland, lesion: follicular-cell adenoma + follicular-cell carcinoma, dosed 80 weeks, study length 109 weeks) was 41.6 mg/kg/day (inactive).
With `Nc1nc(N)nc(-c2ccc([N+](=O)[O-])o2)n1` the TD50 (rat, strain Sprague-Dawley, females, site: any site (literature study), lesion: several types, types named in the paper, dosed 46 weeks, study length 66 weeks) was 1.71 mg/kg/day, the TD50 (rat, strain Sprague-Dawley, females, site: mammary gland, lesion: adenocarcinoma, dosed 46 weeks, study length 66 weeks) was 4.49 mg/kg/day and the TD50 (rat, strain Sprague-Dawley, females, site: mammary gland, lesion: several types, types named in the paper, dosed 46 weeks, study length 66 weeks) was 1.71 mg/kg/day.
